Reference: the NIST ThermoML archive (doi:10.1021/je060271a)

Conditions: Liquid, Vibrating tube method

CCCCCCC(=O)OCC(COC(=O)CCCCCC)(COC(=O)CCCCCC)COC(=O)CCCCCC [pentaerythritol tetraheptanoate]
Conditions | mass density [kg/m3]
343.17 K, 15173 kPa | 951.7
343.17 K, 15191 kPa | 951.6
343.17 K, 15206 kPa | 951.6
343.17 K, 15221 kPa | 951.7
343.17 K, 15240 kPa | 951.7
343.17 K, 15255 kPa | 951.6
343.17 K, 15270 kPa | 951.8
343.17 K, 15286 kPa | 951.7
343.17 K, 15305 kPa | 951.7
343.17 K, 15320 kPa | 951.9
343.17 K, 15338 kPa | 951.6
343.17 K, 15354 kPa | 951.8
343.17 K, 15369 kPa | 951.6
343.17 K, 15387 kPa | 951.9
343.17 K, 15403 kPa | 951.8
343.17 K, 15419 kPa | 952
343.17 K, 15437 kPa | 951.8
343.17 K, 15453 kPa | 951.8
343.17 K, 15469 kPa | 951.8
343.17 K, 15488 kPa | 951.9
343.17 K, 15504 kPa | 951.9
343.17 K, 15520 kPa | 951.9
343.17 K, 15536 kPa | 951.9
343.17 K, 15555 kPa | 951.9
343.17 K, 15571 kPa | 952
343.17 K, 15587 kPa | 951.9
343.17 K, 15606 kPa | 951.8
343.17 K, 15622 kPa | 952
343.17 K, 15638 kPa | 952.1
343.17 K, 15655 kPa | 952.1
343.17 K, 15674 kPa | 952.1
343.17 K, 15691 kPa | 952
343.17 K, 15707 kPa | 952
343.17 K, 15724 kPa | 952.2
343.17 K, 15743 kPa | 952
343.17 K, 15759 kPa | 952.1
343.17 K, 15778 kPa | 952
343.17 K, 15795 kPa | 952.1
343.17 K, 15812 kPa | 952.2
343.17 K, 15831 kPa | 952.1
343.17 K, 15848 kPa | 952.2
343.17 K, 15865 kPa | 952.2
343.17 K, 15884 kPa | 952.1
343.17 K, 15901 kPa | 952.2
343.17 K, 15918 kPa | 952.3
343.17 K, 15938 kPa | 952.3
343.17 K, 15955 kPa | 952.2
343.17 K, 15972 kPa | 952.2
343.17 K, 15989 kPa | 952.3
343.17 K, 16009 kPa | 952.3
343.17 K, 16025 kPa | 952.2
343.17 K, 16042 kPa | 952.3
343.17 K, 16062 kPa | 952.2
343.18 K, 14586 kPa | 951.4
343.18 K, 14600 kPa | 951.2
343.18 K, 14617 kPa | 951.3
